{"source": "patent US20200368336A1", "about": "“METHOD FOR PREPARING PERSONALIZED CANCER VACCINE” (SHANGHAI JENOMED BIOTECH CO., LTD., priority 2017, published 2020)", "system": "mouse MHC molecule (MHC class I molecules)", "assay": "predicted affinity of short peptide chain to mouse MHC molecule (correlation analysis software)", "settings": "mutant vs wild-type", "method": "The tumor neoantigen of mice were analyzed by the following methods: mouse H-2 typing software was used to classify mouse H-2 molecules, and using software such as Sentieon TNscope, the DNA exome sequencing sequence of the peripheral blood mononuclear cells of cancer-bearing mice was used as a control to isolate tumor neoantigen from the sequencing sequence of CTC DNA exome of cancer-bearing mice, and the correlation analysis software was used to predict the affinity of the short peptide chain tumor neoantigen and its corresponding wild-type short peptide chain to the mouse MHC molecule.", "data": [{"sequence": "KAIRNVLII [preferred tumor neoantigen peptide screened from CTC of cancer-bearing mice]", "values": [{"measurement": "affinity of neoantigen higher than that of corresponding wild-type short peptide chain", "result": "about 556 times"}]}]}
